Laboratory results taken from the supplement of paper PMC10307832.

Legend:
Assay in all cases: relative viability (nuclei count vs DMSO), 5 days (fraction); higher = more cells survive
[1] = system: PC-14
Method in brief: (§1)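 For relative viability, nuclei counts in treated wells were divided by those in vehicle wells. Lung cancer cell lines had been pin-tool dosed in 1536-well plates the day after seeding and cultured for 5 days, then fixed and stained in one step (final 0.05% Triton X-100, 1% formaldehyde, 1 ug/ml Hoechst) and imaged at 4×. Doses were one drug alone or a fixed anchor-drug dose plus five library-drug doses (not always all listed) in √10 steps, and values are duplicate-plate medians.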

[2] = system: NCI-H1792
Method in brief: as §1

[3] = system: NCI-H650
Method in brief: as §1

[4] = system: LCLC-103H
Method in brief: as §1

[5] = system: NCI-H460
Method in brief: as §1

[6] = system: NCI-H596
Method in brief: as §1

[7] = system: NCI-H1651
Method in brief: as §1

[8] = system: LXF-289
Method in brief: as §1

[9] = system: NCI-H1355
Method in brief: as §1

[10] = system: RERF-LC-KJ
Method in brief: as §1

[11] = system: NCI-H1755
Method in brief: as §1

[12] = system: NCI-H441
Method in brief: as §1

[13] = system: NCI-H727
Method in brief: as §1

[14] = system: NCI-H3122
Method in brief: as §1

[15] = system: NCI-H1915
Method in brief: as §1

[16] = system: NCI-H661
Method in brief: as §1

[17] = system: NCI-H520
Method in brief: as §1

[18] = system: NCI-H1563
Method in brief: as §1

[19] = system: NCI-H322M
Method in brief: as §1

[20] = system: NCI-H2347
Method in brief: as §1

SMILES: O=C(O)c1ccc(-c2c[nH]c3ncc(-c4ccccc4)cc23)cc1C1CCCC1 + CC(C)C[C@H](NC(=O)[C@H](Cc1ccccc1)NC(=O)c1cnccn1)B(O)O [Bortezomib] (partner 0.002 µM)
- relative viability ([1]; first compound 0.04 µM): 0.917
- relative viability ([1]; first compound 0.1265 µM): 0.901
- relative viability ([1]; first compound 0.4 µM): 0.891
- relative viability ([1]; first compound 1.265 µM): 0.758
- relative viability ([2]; first compound 0.04 µM): 0.933
- relative viability ([2]; first compound 0.1265 µM): 1.13
- relative viability ([2]; first compound 0.4 µM): 1.04
- relative viability ([2]; first compound 1.265 µM): 0.912
- relative viability ([3]; first compound 0.04 µM): 0.746
- relative viability ([3]; first compound 0.1265 µM): 0.895
- relative viability ([3]; first compound 0.4 µM): 0.858
- relative viability ([3]; first compound 1.265 µM): 0.5
- relative viability ([4]; first compound 0.04 µM): 1.11
- relative viability ([4]; first compound 0.1265 µM): 1.15
- relative viability ([4]; first compound 0.4 µM): 1
- relative viability ([4]; first compound 1.265 µM): 1.05
- relative viability ([5]; first compound 0.04 µM): 1.07
- relative viability ([5]; first compound 0.1265 µM): 1.4
- relative viability ([5]; first compound 0.4 µM): 0.999
- relative viability ([5]; first compound 1.265 µM): 0.939
- relative viability ([6]; first compound 0.04 µM): 0.935
- relative viability ([6]; first compound 0.1265 µM): 0.982
- relative viability ([6]; first compound 0.4 µM): 1.02
- relative viability ([6]; first compound 1.265 µM): 1.06
- relative viability ([7]; first compound 0.04 µM): 0.879
- relative viability ([7]; first compound 0.1265 µM): 0.984
- relative viability ([7]; first compound 0.4 µM): 0.983
- relative viability ([7]; first compound 1.265 µM): 0.855
- relative viability ([8]; first compound 0.04 µM): 0.969
- relative viability ([8]; first compound 0.1265 µM): 0.944
- relative viability ([8]; first compound 0.4 µM): 0.8
- relative viability ([8]; first compound 1.265 µM): 0.568
- relative viability ([9]; first compound 0.04 µM): 1.18
- relative viability ([9]; first compound 0.1265 µM): 1.29
- relative viability ([9]; first compound 0.4 µM): 1.22
- relative viability ([9]; first compound 1.265 µM): 1.04
- relative viability ([10]; first compound 0.04 µM): 1.12
- relative viability ([10]; first compound 0.1265 µM): 1.14
- relative viability ([10]; first compound 0.4 µM): 1.06
- relative viability ([10]; first compound 1.265 µM): 0.996
- relative viability ([11]; first compound 0.04 µM): 1.01
- relative viability ([11]; first compound 0.1265 µM): 0.732
- relative viability ([11]; first compound 0.4 µM): 0.997
- relative viability ([11]; first compound 1.265 µM): 0.924
- relative viability ([12]; first compound 0.04 µM): 0.587
- relative viability ([12]; first compound 0.1265 µM): 0.59
- relative viability ([12]; first compound 0.4 µM): 0.246
- relative viability ([12]; first compound 1.265 µM): 0.289
- relative viability ([13]; first compound 0.04 µM): 0.788
- relative viability ([13]; first compound 0.1265 µM): 0.99
- relative viability ([13]; first compound 0.4 µM): 0.906
- relative viability ([13]; first compound 1.265 µM): 0.783
- relative viability ([14]; first compound 0.04 µM): 0.976
- relative viability ([14]; first compound 0.1265 µM): 1.01
- relative viability ([14]; first compound 0.4 µM): 0.984
- relative viability ([14]; first compound 1.265 µM): 0.986
- relative viability ([15]; first compound 0.04 µM): 0.957
- relative viability ([15]; first compound 0.1265 µM): 0.949
- relative viability ([15]; first compound 0.4 µM): 0.957
- relative viability ([15]; first compound 1.265 µM): 0.789
- relative viability ([16]; first compound 0.04 µM): 0.72
- relative viability ([16]; first compound 0.1265 µM): 0.791
- relative viability ([16]; first compound 0.4 µM): 0.82
- relative viability ([16]; first compound 1.265 µM): 0.935
- relative viability ([17]; first compound 0.04 µM): 0.567
- relative viability ([17]; first compound 0.1265 µM): 0.717
- relative viability ([17]; first compound 0.4 µM): 0.482
- relative viability ([17]; first compound 1.265 µM): 0.327
- relative viability ([18]; first compound 0.04 µM): 0.832
- relative viability ([18]; first compound 0.1265 µM): 0.869
- relative viability ([18]; first compound 0.4 µM): 0.907
- relative viability ([18]; first compound 1.265 µM): 0.931
- relative viability ([19]; first compound 0.04 µM): 1.25
- relative viability ([19]; first compound 0.1265 µM): 1.32
- relative viability ([19]; first compound 0.4 µM): 1.33
- relative viability ([19]; first compound 1.265 µM): 1.23
- relative viability ([20]; first compound 0.04 µM): 1.03
- relative viability ([20]; first compound 0.1265 µM): 1.32
- relative viability ([20]; first compound 0.4 µM): 0.869
- relative viability ([20]; first compound 1.265 µM): 1.05

SMILES: NC(=O)Nc1cc(-c2cccc(F)c2)sc1C(=O)N[C@H]1CCCNC1 [AZD7762] + CC(C)C[C@H](NC(=O)[C@H](Cc1ccccc1)NC(=O)c1cnccn1)B(O)O [Bortezomib] (partner 0.002 µM)
- relative viability ([1]; first compound 0.01 µM): 0.848
- relative viability ([1]; first compound 0.03162 µM): 0.925
- relative viability ([1]; first compound 0.1 µM): 0.932
- relative viability ([1]; first compound 0.3162 µM): 0.662
- relative viability ([1]; first compound 1 µM): 0.357
- relative viability ([2]; first compound 0.01 µM): 0.982
- relative viability ([2]; first compound 0.03162 µM): 0.941
- relative viability ([2]; first compound 0.1 µM): 0.925
- relative viability ([2]; first compound 0.3162 µM): 1.01
- relative viability ([2]; first compound 1 µM): 1.04
- relative viability ([3]; first compound 0.01 µM): 0.851
- relative viability ([3]; first compound 0.03162 µM): 0.892
- relative viability ([3]; first compound 0.1 µM): 0.772
- relative viability ([3]; first compound 0.3162 µM): 0.687
- relative viability ([3]; first compound 1 µM): 0.767
- relative viability ([4]; first compound 0.01 µM): 1.19
- relative viability ([4]; first compound 0.03162 µM): 1.08
- relative viability ([4]; first compound 0.1 µM): 1.25
- relative viability ([4]; first compound 0.3162 µM): 0.95
- relative viability ([4]; first compound 1 µM): 0.867
- relative viability ([5]; first compound 0.01 µM): 1.18
- relative viability ([5]; first compound 0.03162 µM): 1.04
- relative viability ([5]; first compound 0.1 µM): 1.18
- relative viability ([5]; first compound 0.3162 µM): 0.88
- relative viability ([5]; first compound 1 µM): 0.0988
- relative viability ([6]; first compound 0.01 µM): 1.02
- relative viability ([6]; first compound 0.03162 µM): 0.896
- relative viability ([6]; first compound 0.1 µM): 1.13
- relative viability ([6]; first compound 0.3162 µM): 1.2
- relative viability ([6]; first compound 1 µM): 1.03
- relative viability ([7]; first compound 0.01 µM): 0.945
- relative viability ([7]; first compound 0.03162 µM): 0.932
- relative viability ([7]; first compound 0.1 µM): 1.01
- relative viability ([7]; first compound 0.3162 µM): 0.963
- relative viability ([7]; first compound 1 µM): 0.686
- relative viability ([8]; first compound 0.01 µM): 0.918
- relative viability ([8]; first compound 0.03162 µM): 0.947
- relative viability ([8]; first compound 0.1 µM): 1.07
- relative viability ([8]; first compound 0.3162 µM): 1
- relative viability ([8]; first compound 1 µM): 1.12
- relative viability ([9]; first compound 0.01 µM): 1.17
- relative viability ([9]; first compound 0.03162 µM): 1.23
- relative viability ([9]; first compound 0.1 µM): 1.21
- relative viability ([9]; first compound 0.3162 µM): 1.27
- relative viability ([9]; first compound 1 µM): 1.19
- relative viability ([10]; first compound 0.01 µM): 1.16
- relative viability ([10]; first compound 0.03162 µM): 1.11
- relative viability ([10]; first compound 0.1 µM): 1.11
- relative viability ([10]; first compound 0.3162 µM): 1.11
- relative viability ([10]; first compound 1 µM): 1.14
- relative viability ([11]; first compound 0.01 µM): 0.919
- relative viability ([11]; first compound 0.03162 µM): 1.03
- relative viability ([11]; first compound 0.1 µM): 1.05
- relative viability ([11]; first compound 0.3162 µM): 0.926
- relative viability ([11]; first compound 1 µM): 0.384
- relative viability ([12]; first compound 0.01 µM): 1.13
- relative viability ([12]; first compound 0.03162 µM): 0.972
- relative viability ([12]; first compound 0.1 µM): 0.313
- relative viability ([12]; first compound 0.3162 µM): 0.456
- relative viability ([12]; first compound 1 µM): 0.548
- relative viability ([13]; first compound 0.01 µM): 1.04
- relative viability ([13]; first compound 0.03162 µM): 0.878
- relative viability ([13]; first compound 0.1 µM): 0.556
- relative viability ([13]; first compound 0.3162 µM): 0.446
- relative viability ([13]; first compound 1 µM): 0.298
- relative viability ([14]; first compound 0.01 µM): 1.04
- relative viability ([14]; first compound 0.03162 µM): 1.01
- relative viability ([14]; first compound 0.1 µM): 1.05
- relative viability ([14]; first compound 0.3162 µM): 0.966
- relative viability ([14]; first compound 1 µM): 1.09
- relative viability ([15]; first compound 0.01 µM): 0.989
- relative viability ([15]; first compound 0.03162 µM): 0.99
- relative viability ([15]; first compound 0.1 µM): 1.03
- relative viability ([15]; first compound 0.3162 µM): 1.02
- relative viability ([15]; first compound 1 µM): 0.959
- relative viability ([16]; first compound 0.01 µM): 0.828
- relative viability ([16]; first compound 0.03162 µM): 0.938
- relative viability ([16]; first compound 0.1 µM): 0.766
- relative viability ([16]; first compound 0.3162 µM): 0.681
- relative viability ([16]; first compound 1 µM): 0.382
- relative viability ([17]; first compound 0.01 µM): 0.471
- relative viability ([17]; first compound 0.03162 µM): 0.659
- relative viability ([17]; first compound 0.1 µM): 0.525
- relative viability ([17]; first compound 0.3162 µM): 0.27
- relative viability ([17]; first compound 1 µM): 0.289
- relative viability ([18]; first compound 0.01 µM): 0.843
- relative viability ([18]; first compound 0.03162 µM): 0.963
- relative viability ([18]; first compound 0.1 µM): 1.05
- relative viability ([18]; first compound 0.3162 µM): 0.976
- relative viability ([18]; first compound 1 µM): 0.746
- relative viability ([19]; first compound 0.01 µM): 1.09
- relative viability ([19]; first compound 0.03162 µM): 1.26
- relative viability ([19]; first compound 0.1 µM): 1.36
- relative viability ([19]; first compound 0.3162 µM): 1.39
- relative viability ([19]; first compound 1 µM): 1.33
- relative viability ([20]; first compound 0.01 µM): 1.1
- relative viability ([20]; first compound 0.03162 µM): 0.967
- relative viability ([20]; first compound 0.1 µM): 0.863
- relative viability ([20]; first compound 0.3162 µM): 1.17
- relative viability ([20]; first compound 1 µM): 0.685
